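Tested at 5 concentrations; 48 h exposure; 96-well plates; endpoints linearly interpolated, else capped at highest concentration. At the GI50, growth is halved. TGI is the concentration that stops growth completely.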
What was measured:
Experiment in all cases: DTP human tumour cell line panel, 48 h
[1] = system: 786-0 renal
[2] = system: A498 renal
[3] = system: A549 NSCLC
[4] = system: ACHN renal
[5] = system: BT-549 breast
[6] = system: CAKI-1 renal
[7] = system: CCRF-CEM leukemia
[8] = system: COLO 205 colon
[9] = system: DU-145 prostate
[10] = system: HCC-2998 colon
[11] = system: HCT-116 colon
[12] = system: HCT-15 colon
[13] = system: HL-60(TB) leukemia
[14] = system: HOP-62 NSCLC
[15] = system: HOP-92 NSCLC
[16] = system: HS 578T breast
[17] = system: HT29 colon
[18] = system: IGROV1 ovarian
[19] = system: K-562 leukemia
[20] = system: KM12 colon
[21] = system: LOX IMVI melanoma
[22] = system: M14 melanoma
[23] = system: MALME-3M melanoma
[24] = system: MCF7 breast
[25] = system: MDA-MB-231 breast
[26] = system: MDA-MB-435
[27] = system: MOLT-4 leukemia
[28] = system: NCI-H226 lung
[29] = system: NCI-H23 lung
[30] = system: NCI-H460 lung
[31] = system: NCI-H522 lung
[32] = system: NCI/ADR-RES ovarian
[33] = system: OVCAR-3 ovarian
[34] = system: OVCAR-4 ovarian
[35] = system: OVCAR-5 ovarian
[36] = system: OVCAR-8 ovarian
[37] = system: PC-3 prostate
[38] = system: RPMI-8226 leukemia
[39] = system: RXF 393 renal
[40] = system: SF-268 CNS
[41] = system: SF-295 CNS
[42] = system: SF-539 CNS
[43] = system: SK-MEL-2 melanoma
[44] = system: SK-MEL-28 melanoma
[45] = system: SK-MEL-5 melanoma
[46] = system: SK-OV-3 ovarian
[47] = system: SN12C renal
[48] = system: SNB-19 CNS
[49] = system: SNB-75 CNS
[50] = system: SR leukemia
[51] = system: SW-620 colon
[52] = system: T-47D breast
[53] = system: TK-10 renal
[54] = system: U251 CNS
[55] = system: UACC-257 melanoma
[56] = system: UACC-62 melanoma
[57] = system: UO-31 renal

In the case of Cc1cc(=O)n2nnc3c4ccccc4ccc3n12, the GI50 [1] is reported as 8.25 µM, the TGI [1] is reported as 20.6 µM and the GI50 [2] is reported as 11.2 µM. The TGI [2] was 23.2 µM, the GI50 [3] was 10.8 µM and the TGI [3] was 23.8 µM. It also gave a GI50 [4] of 1.58 µM, a TGI [4] of 2.97 µM and a GI50 [5] of 7.76 µM. For the same molecule, the TGI [5] was 21.1 µM, the GI50 [6] was 1.64 µM and the TGI [6] was 3.33 µM. It also gave a GI50 [7] of 1.06 µM, a TGI [7] of 3.91 µM and a GI50 [8] of 2.97 µM. For the same molecule, the TGI [8] was 8.77 µM, the GI50 [9] was 11.3 µM and the TGI [9] was 23.4 µM. For the same molecule, the GI50 [10] was 16.5 µM, the TGI [10] was 30.9 µM and the GI50 [11] was 1.85 µM. It also gave a TGI [11] of 3.46 µM, a GI50 [12] of 2.86 µM and a TGI [12] of 10.4 µM. It also gave a GI50 [13] of 11.5 µM, a TGI [13] of 37.2 µM and a GI50 [14] of 6.11 µM. It also gave a TGI [14] of 20.9 µM, a GI50 [15] of 0.942 µM and a TGI [15] of 15 µM. For the same molecule, the GI50 [16] was 15.2 µM, the TGI [16] was 49 µM and the GI50 [17] was 2.36 µM. It also gave a TGI [17] of 5.57 µM, a GI50 [18] of 1.96 µM and a TGI [18] of 4.52 µM. The GI50 [19] was 1.8 µM, the TGI [19] was 7.85 µM and the GI50 [20] was 10.6 µM. It also gave a TGI [20] of 22.6 µM, a GI50 [21] of 4.42 µM and a TGI [21] of 16.2 µM. For the same molecule, the GI50 [22] was 13.5 µM, the TGI [22] was 27.1 µM and the GI50 [23] was 2.08 µM. For the same molecule, the TGI [23] was 8.19 µM, the GI50 [24] was 2.86 µM and the TGI [24] was 10.5 µM. It also gave a GI50 [25] of 11.4 µM, a TGI [25] of 23.7 µM and a GI50 [26] of 14.3 µM. For the same molecule, the TGI [26] was 29.9 µM, the GI50 [27] was 3.39 µM and the TGI [27] was 19.5 µM. The GI50 [28] was 7.64 µM, the TGI [28] was 27.1 µM and the GI50 [29] was 12.4 µM. For the same molecule, the TGI [29] was 27.9 µM, the GI50 [30] was 13.9 µM and the TGI [30] was 30.4 µM. It also gave a GI50 [31] of 1.54 µM, a TGI [31] of 2.93 µM and a GI50 [32] of 3.87 µM. It also gave a TGI [32] of 43.9 µM, a GI50 [33] of 1.79 µM and a TGI [33] of 3.37 µM. The GI50 [34] was 1.5 µM, the TGI [34] was 3.27 µM and the GI50 [35] was 1.84 µM. The TGI [35] was 14.7 µM, the GI50 [36] was 2.03 µM and the TGI [36] was 6.97 µM. The GI50 [37] was 4.22 µM, the TGI [37] was 17.7 µM and the GI50 [38] was 0.959 µM. For the same molecule, the TGI [38] was 4.03 µM, the GI50 [39] was 10.8 µM and the TGI [39] was 22.8 µM. The GI50 [40] was 11 µM, the TGI [40] was 23.1 µM and the GI50 [41] was 14.8 µM. It also gave a TGI [41] of 30.2 µM, a GI50 [42] of 3.5 µM and a TGI [42] of 16.7 µM. It also gave a GI50 [43] of 16.5 µM, a TGI [43] of 30.6 µM and a GI50 [44] of 13.9 µM. For the same molecule, the TGI [44] was 27.1 µM, the GI50 [45] was 12.8 µM and the TGI [45] was 25.7 µM. It also gave a GI50 [46] of 2.72 µM, a TGI [46] of 20.3 µM and a GI50 [47] of 7.34 µM. The TGI [47] was 21.5 µM, the GI50 [48] was 12.8 µM and the TGI [48] was 25.4 µM. For the same molecule, the GI50 [49] was 14.9 µM, the TGI [49] was 29.9 µM and the GI50 [50] was 2.28 µM. It also gave a TGI [50] of 13.7 µM, a GI50 [51] of 1.63 µM and a TGI [51] of 3.11 µM. It also gave a GI50 [52] of 1.38 µM, a TGI [52] of 3.14 µM and a GI50 [53] of 1.68 µM. For the same molecule, the TGI [53] was 3.2 µM, the GI50 [54] was 14.9 µM and the TGI [54] was 28.1 µM. It also gave a GI50 [55] of 13 µM, a TGI [55] of 25.7 µM and a GI50 [56] of 5.3 µM. The TGI [56] was 18.6 µM, the GI50 [57] was 1.2 µM and the TGI [57] was 2.72 µM.

— PubChem BioAssay (NCI)
